Data published in patent US20250127778A1, “CANCER IMMUNOTHERAPY COMPOSITION CONTAINING INTERACTION INHIBITOR OF STING AND TRIM29 AS ACTIVE INGREDIENT” (SPARK BIOPHARMA, INC, priority 2021, published 2025).

Legend:
[1] = test system: TRIM29-mediated Lys48 polymerized multi-ubiquitination of STING; experiment: ELISA detection of STING Lys48 polymerized multi-ubiquitination in HEK293T cells; assay type: cell-based, human; settings: with MG132, three hours, FIG. 8
Procedure: It was confirmed whether the oxopiperazine derivatives of Formulas 1 to 6 increased the intracellular amount by preventing the degradation of STING through TRIM29-mediated Lys48 polymerized multi-ubiquitination (K48 linkage-specific polyubiquitination).
Specifically, HEK293T cells were seeded in a transparent 6-well plate and cultured for one day. […] At this time, only the effect of the compound was quantitatively detected in a manner of using an analysis value of the sample that was not treated with MG132, a proteasome inhibitor that prevents the removal of ubiquitinated proteins, as a control group and subtracting the analysis value from an analysis value of the sample that was treated with MG132. […] The protein concentration of the supernatant was measured by using Bradford assay reagent. […] To confirm the quantitative concentration, a 5× SDS-PAGE loading buffer (Biosesang) was added at the ratio of the manufacturer to a portion of the sample, and then the resultant was treated at 95° C. for five minutes and analyzed by using the western blotting method described above. […]

[2] = test system: bone-marrow derived dendritic cells (BMDC) and OT-1 T cells; experiment: BMDC antigen presentation to OT-1 T cells with OVA antigen; assay type: cell-based, mouse; settings: OVA antigen directly treated, FIG. 18
Procedure: It was confirmed that the compound of Formula 1 increased the antigen presentation efficacy of bone-marrow derived dendritic cells (BMDC) of a STING agonist to cytotoxic T cells (CD8^+ T cells).
Specifically, mouse bone marrow-derived cells were obtained from the femur and tibia of 8-week-old female C57BL/6 mice. 2×10^6 of cells were cultured in 2 mL of a MLR medium (RPMI 1640 medium supplemented with 10% FBS, 1% 1M HEPES, 1% glutamine, and 1% antibiotic-antimycotic) supplemented with 10 ng/ml mGM-CSF and 5 ng/ml IL-4 to be differentiated into dendritic cells (BMDC). On the third day from the start of cell culturing, 2 mL of the MLR medium was added. Additionally, on the sixth day, 2×10^6 dendritic cells were treated with 50 μg/mL OVA protein and/or 100 ng/ml lipopolysaccharide (LPS), and cGAMP and/or the compound represented by Formula 1 at various concentrations. Thereafter, the cells were cultured at 37° C. in a 5% CO2 incubator for 24 hours, and then flow cytometry of dendritic cell activation markers (CD80, CD86, MHC II) was performed. Subsequently, 5×10^4 dendritic cells were incubated with 2×10^5 CFSE-labeled OT-1 T cells (OVA-specific CD8^+ T cells) to observe OT-1 T cell proliferation.

[3] = test system: tumor-infiltrating leukocytes (TILs); experiment: Flow cytometry of tumor-infiltrating immune cells; assay type: in vivo, mouse; settings: combination with cGAMP, FIG. 26
Procedure: The tumors were extracted after the mice were euthanized with carbon dioxide. The tumor tissues were divided into small pieces with a razor blade, treated with the DMEM solution including 2% horse serum, 0.5 mg/ml of collagenase D, and 40 μg/mL of DNase I for one hour at 37° C., and permeated through a 40-μm filter, thereby being separated into individual cells. Tumor-infiltrating leukocytes (TILs) were separated from the separated cells by percoll concentration-gradient centrifugation, and red blood cells were removed by treatment with red blood cell lysis solution. The obtained cells were redistributed in the FACS solution described above, and FcγRII/III receptors of individual immune cells were neutralized by treatment with the anti-mouse CD16/CD32 Abs (clone 2.4G2) antibody at 4° C. for 10 minutes. The treatment with primary antibodies for individual cell differentiation were performed at 4° C. for 30 minutes. The treated cells were redistributed into a PBS solution after centrifugation and then further centrifuged to remove the supernatant. The cells were fixed by the treatment with 4% paraformaldehyde (PFA) solution at room temperature for 10 minutes, treated with Triton solution (PBS solution including 0.1% BSA and 0.5% Triton-X-100), and centrifuged, and then the supernatant was removed. Cytokine (IFNγ(XMG1.2)-APC, Perforin(S16009A)-PE, granzyme B(QA16A02)-FITC, Biolegend) primary antibodies were treated at room temperature for two hours. Finally, the Triton solution was added, centrifugation was performed, the supernatant was removed, the cells were redistributed into 200 μL of the Triton solution and analyzed by using a FACSCalibur device from BD Bioscience, and the results were quantitatively analyzed by using the FlowJo program from Tree Star, Inc.

Question: With `COc1ccc(CC2=CN(c3ccc(C(=O)NC[C@H]4CCCO4)cc3[N+](=O)[O-])[C@H](C(C)C)C(=O)N2Cc2ccc(O)cc2)cc1` [Formula 1, 4-((R)-4-(4-hydroxybenzyl)-2-isopropyl-5-(4-methoxybenzyl)-3-oxo-3,4-dihydropyrazin-1 (2H)-yl)-3-nitro-N-(((R)-tetrahydrofuran-2-yl)methyl)benzamide] as the molecule, how does the “TRIM29-mediated lysine 48 polymerized multi-ubiquitination of STING” value [1] read?
Answer: inhibited

Question: What about the “OT-1 T cell proliferation (BMDC activation by cGAMP and antigen presentation efficacy)” value [2] of the same molecule?
Answer: promoted cell proliferation in a concentration-dependent manner

Question: What about the “infiltration of total T cells and cytotoxic T cells into the tumor” value ([3]; ratio of CD45+ cells) of the same molecule?
Answer: increased

Question: What about the “activity of infiltrated cytotoxic T cells (TNF-α, granzyme B, Perforin)” value [3] of the same molecule?
Answer: increased

Question: And the “total ratio of myeloid-derived suppressor cells (MDSC)” value [3]?
Answer: decreased
